The target of one assay is Cathepsin S (UniProt P25774). Nature of the assay: Cathepsin enzyme inhibition assay (fluorogenic peptide substrate Z-Val-Val-Arg-AMC), Cathepsin S. The assay is classed as biochemical, human and mouse. The note with it: enzyme 1 nM, substrate 20 μM, pH 6.5; read-out: CatS IC50. In outline: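 Compounds were combined with 1 nM human or mouse enzyme, and substrate then started the reaction. The buffer was potassium phosphate (100 mM, pH 6.5) containing EDTA-Na 5 mM, Triton X-100 0.001% and […] 5 mM.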

For a further assay, the target named is Cat L (UniProt P07711). Nature of the assay: Cathepsin enzyme inhibition assay (fluorogenic peptide substrate Z-Val-Val-Arg-AMC), Cathepsin L. The note with it: enzyme 1 nM, substrate 20 μM, pH 6.5; read-out: CatL IC50. The assay is classed as biochemical, human and mouse. In outline: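 Fluorogenic cleavage of Z-Val-Val-Arg-AMC (20 μM) by 1 nM Cat L was monitored at ex 360/em 465 nm for 20 min, the linear phase. The buffer was 100 mM potassium phosphate pH 6.5 with 5 mM EDTA and DTT. IC50 values were derived by standard methods, in μM.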

Structures are written as SMILES.

What is called IC50 is the concentration needed to halve the response being measured. As for `N#CCNC(=O)[C@@H]1C[C@@H](S(=O)(=O)c2ccccc2Cl)CN1C(c1ccccc1)C(F)(F)F` (stereo partly drawn) [Example 57, (2S,4R)-4-(2-Chloro-benzenesulfonyl)-1-(2,2,2-trifluoro-1-phenyl-ethyl)-pyrrolidine-2-carboxylic acid cyanomethyl-amide], the IC50 is 14.3 nM on Cathepsin S and 17000 nM on Cat L.

On to `N#CCNC(=O)[C@@H]1C[C@@H](S(=O)(=O)c2ccccc2Cl)CN1C(=O)c1ccccc1` [Example 58, (2S,4R)-1-Benzoyl-4-(2-chloro-benzenesulfonyl)-pyrrolidine-2-carboxylic acid cyanomethyl-amide], for which the concentration for half-maximal inhibition (IC50) was 1.6 nM at Cathepsin S and 27400 nM at Cat L.

As for `N#CCNC(=O)[C@@H]1C[C@@H](S(=O)(=O)c2ccccc2Cl)CN1C(=O)c1ccc(F)cc1` [Example 59, (2S,4R)-4-(2-Chloro-benzenesulfonyl)-1-(4-fluoro-benzoyl)-pyrrolidine-2-carboxylic acid cyanomethyl-amide], the IC50 at Cathepsin S was found to be 1.8 nM; on Cat L, 12200 nM.

`N#CCNC(=O)[C@@H]1C[C@@H](S(=O)(=O)c2ccccc2Cl)CN1C(=O)C1CCCCC1` [Example 60, (2S,4R)-4-(2-Chloro-benzenesulfonyl)-1-cyclohexanecarbonyl-pyrrolidine-2-carboxylic acid cyanomethyl-amide]: the IC50 at Cathepsin S came out at 0.5 nM; at Cat L, 12800 nM.

With `CCC(=O)N1C[C@H](S(=O)(=O)c2ccccc2Cl)C[C@H]1C(=O)NCC#N` [Example 61, (2S,4R)-4-(2-Chloro-benzenesulfonyl)-1-propionyl-pyrrolidine-2-carboxylic acid cyanomethyl-amide], the IC50 on Cathepsin S stood at 1.2 nM; on Cat L, 22500 nM.

For the compound `COCC(=O)N1C[C@H](S(=O)(=O)c2ccccc2Cl)C[C@H]1C(=O)NCC#N` [Example 62, (2S,4R)-4-(2-Chloro-benzenesulfonyl)-1-(2-methoxy-acetyl)-pyrrolidine-2-carboxylic acid cyanomethyl-amide], the IC50 at Cathepsin S turned out to be 1.2 nM; on Cat L it was 21000 nM.

Consider `N#CCNC(=O)[C@@H]1C[C@@H](S(=O)(=O)c2ccccc2Cl)CN1C1COC1` [Example 63, (2S,4R)-4-(2-Chloro-benzenesulfonyl)-1-oxetan-3-yl-pyrrolidine-2-carboxylic acid cyanomethyl-amide], for which the values for the IC50 on Cathepsin S and at Cat L were 100 nM and not below 25000 nM, respectively.

With `N#CCNC(=O)[C@@H]1C[C@@H](S(=O)(=O)c2ccccc2Cl)CN1C1CCOCC1` [Example 64, (2S,4R)-4-(2-Chloro-benzenesulfonyl)-1-(tetrahydro-pyran-4-yl)-pyrrolidine-2-carboxylic acid cyanomethyl-amide], the IC50 at Cathepsin S was 109 nM; on Cat L, not below 25000 nM.

For `N#CCNC(=O)[C@@H]1C[C@@H](S(=O)(=O)c2ccccc2C(F)(F)F)CN1C(=O)c1ccc(F)cc1` [Example 65, (2S,4R)-1-(4-Fluoro-benzoyl)-4-(2-trifluoromethyl-benzenesulfonyl)-pyrrolidine-2-carboxylic acid cyanomethyl-amide], the figures for the IC50 at Cathepsin S and at Cat L were 0.6 nM and not below 25000 nM, respectively.

As for `Cc1ccc(C(=O)N2C[C@H](S(=O)(=O)c3ccccc3C(F)(F)F)C[C@H]2C(=O)NCC#N)cc1` [Example 66, (2S,4R)-1-(4-Methyl-benzoyl)-4-(2-trifluoromethyl-benzenesulfonyl)-pyrrolidine-2-carboxylic acid cyanomethyl-amide], the IC50 is 0.6 nM on Cathepsin S and not below 25000 nM on Cat L.

`N#CCNC(=O)[C@@H]1C[C@@H](S(=O)(=O)c2ccccc2C(F)(F)F)CN1C(=O)C1CCCCC1` [Example 67, (2S,4R)-1-Cyclohexanecarbonyl-4-(2-trifluoromethyl-benzenesulfonyl)-pyrrolidine-2-carboxylic acid cyanomethyl-amide]: the 50% inhibitory concentration (IC50) at Cathepsin S was 0.2 nM; at Cat L it was not below 25000 nM.

In the case of `N#CCNC(=O)[C@@H]1C[C@@H](S(=O)(=O)c2ccccc2C(F)(F)F)CN1C(=O)C1CCOCC1` [Example 68, (2S,4R)-1-(Tetrahydro-pyran-4-carbonyl)-4-(2-trifluoromethyl-benzenesulfonyl)-pyrrolidine-2-carboxylic acid cyanomethyl-amide], the values for the IC50 on Cathepsin S and on Cat L were 0.3 nM and not below 25000 nM, respectively.

With `N#CCNC(=O)[C@@H]1C[C@@H](S(=O)(=O)c2ccccc2C(F)(F)F)CN1C(=O)c1ccncc1` [Example 69, (2S,4R)-1-(Pyridine-4-carbonyl)-4-(2-trifluoromethyl-benzenesulfonyl)-pyrrolidine-2-carboxylic acid cyanomethyl-amide], the concentration for half-maximal inhibition (IC50) was 0.4 nM at Cathepsin S and not below 25000 nM at Cat L.

On to `CN1CCC(C(=O)N2C[C@H](S(=O)(=O)c3ccccc3C(F)(F)F)C[C@H]2C(=O)NCC#N)CC1` [Example 70, (2S,4R)-1-(1-Methyl-piperidine-4-carbonyl)-4-(2-trifluoromethyl-benzenesulfonyl)-pyrrolidine-2-carboxylic acid cyanomethyl-amide formiate], for which the IC50 on Cathepsin S was determined as 1.6 nM; at Cat L, 25200 nM.

On to `N#CCNC(=O)[C@@H]1C[C@@H](S(=O)(=O)c2ccccc2C(F)(F)F)CN1C(=O)c1ccccc1` [Example 71, (2S,4R)-1-Benzoyl-4-(2-trifluoromethyl-benzenesulfonyl)-pyrrolidine-2-carboxylic acid cyanomethyl-amide], for which the IC50 is 0.5 nM on Cathepsin S and not below 25000 nM on Cat L.

Turning to `N#CCNC(=O)[C@@H]1C[C@@H](S(=O)(=O)c2ccccc2C(F)(F)F)CN1C(=O)OC1CCCC1` [Example 72, (2S,4R)-2-(Cyanomethyl-carbamoyl)-4-(2-trifluoromethyl-benzenesulfonyl)-pyrrolidine-1-carboxylic acid Cyclopentyl Ester], the IC50 is 0.8 nM at Cathepsin S and not below 25000 nM on Cat L.

`N#CC1(NC(=O)[C@@H]2C[C@@H](S(=O)(=O)c3ccccc3)CN2C(=O)c2ccccc2)CC1` [Example 73, (2S,4R)-4-Benzenesulfonyl-1-benzoyl-pyrrolidine-2-carboxylic acid (1-cyano-cyclopropyl)-amide]: the IC50 on Cathepsin S is 12.7 nM; on Cat L, not below 25000 nM.

On to `N#CC1(NC(=O)[C@@H]2C[C@@H](S(=O)(=O)c3ccccc3)CN2C(=O)C2CCOCC2)CC1` [Example 74, (2S,4R)-4-Benzenesulfonyl-1-(tetrahydro-pyran-4-carbonyl)-pyrrolidine-2-carboxylic acid (1-cyano-cyclopropyl)-amide], for which the figures for the IC50 on Cathepsin S and at Cat L were 6.6 nM and not below 25000 nM, respectively.

Consider `N#CC1(NC(=O)[C@@H]2C[C@@H](S(=O)(=O)c3ccccc3Cl)CN2C(=O)c2ccccc2)CC1` [Example 75, (2S,4R)-1-Benzoyl-4-(2-chloro-benzenesulfonyl)-pyrrolidine-2-carboxylic acid (1-cyano-cyclopropyl)-amide], for which the IC50 came out at 0.8 nM on Cathepsin S and 6790 nM on Cat L.

With `N#CC1(NC(=O)[C@@H]2C[C@@H](S(=O)(=O)c3ccccc3Cl)CN2C(=O)c2ccc(F)cc2)CC1` [Example 76, (2S,4R)-4-(2-Chloro-benzenesulfonyl)-1-(4-fluoro-benzoyl)-pyrrolidine-2-carboxylic acid (1-cyano-cyclopropyl)-amide], the IC50 at Cathepsin S was determined as 1.4 nM; at Cat L, 8800 nM.

As for `N#CC1(NC(=O)[C@@H]2C[C@@H](S(=O)(=O)c3ccccc3Cl)CN2C(=O)C2CCCCC2)CC1` [Example 77, (2S,4R)-4-(2-Chloro-benzenesulfonyl)-1-cyclohexanecarbonyl-pyrrolidine-2-carboxylic acid (1-cyano-cyclopropyl)-amide], the IC50 on Cathepsin S stood at 0.2 nM; at Cat L it was 8250 nM.

With `N#CC1(NC(=O)[C@@H]2C[C@@H](S(=O)(=O)c3ccccc3Cl)CN2C=O)CC1` [Example 78, (2S,4R)-4-(2-Chloro-benzenesulfonyl)-1-formyl-pyrrolidine-2-carboxylic acid (1-cyano-cyclopropyl)-amide], the IC50 was 18.5 nM on Cathepsin S and not below 25000 nM on Cat L.

On to `CC(=O)N1C[C@H](S(=O)(=O)c2ccccc2Cl)C[C@H]1C(=O)NC1(C#N)CC1` [Example 79, (2S,4R)-1-Acetyl-4-(2-chloro-benzenesulfonyl)-pyrrolidine-2-carboxylic acid (1-cyano-cyclopropyl)-amide], for which the half-inhibitory concentration (IC50) at Cathepsin S came to 1.4 nM; at Cat L it was 29700 nM.

For the compound `N#CC1(NC(=O)[C@@H]2C[C@@H](S(=O)(=O)c3ccccc3Cl)CN2C(=O)C(F)(F)F)CC1` [Example 80, (2S,4R)-4-(2-Chloro-benzenesulfonyl)-1-(2,2,2-trifluoro-acetyl)-pyrrolidine-2-carboxylic acid (1-cyano-cyclopropyl)-amide], the IC50 came to 0.8 nM on Cathepsin S and 9770 nM on Cat L.

In the case of `CN1CCC[C@H]1C(=O)N1C[C@H](S(=O)(=O)c2ccccc2Cl)C[C@H]1C(=O)NC1(C#N)CC1` [Example 81, (R)-4-(2-Chloro-benzenesulfonyl)-1-((S)-1-methyl-pyrrolidine-2-carbonyl)-pyrrolidine-2-carboxylic acid (1-cyano-cyclopropyl)-amide formiate], the IC50 is 3.2 nM on Cathepsin S and 6030 nM at Cat L.

Take `CN1CCC(C(=O)N2C[C@H](S(=O)(=O)c3ccccc3Cl)C[C@H]2C(=O)NC2(C#N)CC2)CC1` [Example 82, (2S,4R)-4-(2-Chloro-benzenesulfonyl)-1-(1-methyl-piperidine-4-carbonyl)-pyrrolidine-2-carboxylic acid (1-cyano-cyclopropyl)-amide]: the IC50 on Cathepsin S is 8.7 nM; at Cat L, 6800 nM.

For the origin of these results see patent publication US8163793B2, “Proline derivatives” (Hoffman-La Roche Inc., priority 2009, dated 2012).
